Data published in patent publication US10561716B2, “Prostate cancer vaccine” (Wisconsin Alumni Research Foundation, priority 2006, dated 2020).
Entries after “also recorded” stand apart in the source; their conditions may differ.

Legend:
peptide-loaded T2 cells = assay: Cytotoxicity assay (LDH) of peptide-specific patient T-cell cultures against peptide-loaded T2 cells; assay type: cell-based, human; conditions: for Peptide-specific lysis (Number of patients): patients of eleven HLA-A2-expressing prostate cancer patients with peptide-specific T cells after 2-4 in vitro stimulations; for Peptide-specific lysis of T2 cells by peptide-specific T-cells (FIG. 6): patient T-cell lines, three effector-to-target ratios
Experimental: (§1) Human prostate cancer patients underwent leukapheresis, and PBMCs were isolated using a Ficoll-Paque gradient (Pharmacia, Kirkland, Quebec). Immature dendritic cells (iDCs) were generated by incubating flask-adherent PBMCs with 20 ng/mL granulocyte-macrophage colony stimulating factor and 10 ng/mL interleukin four (IL-4) for six days at 37° C./5% CO2 (cytokines from: Fitzgerald Industries, Concord, Mass.). These iDCs were then treated with 150 ng/mL IL-6, 10 ng/mL IL-1β, 10 ng/mL tumor necrosis factor alpha (TNF-α), and […] prostaglandin E2 (Fitzgerald Industries) to generate mature dendritic cells (mDCs). These mDCs were then pulsed with 20 μg/mL AR LBD-derived peptide, and after being irradiated were co-incubated with CD4+ and CD8+ T-cells negatively isolated from autologous PBMCs (Invitrogen, Carlsbad, Calif.). After incubating for 24 hours, these cultures were then treated with 10 U/mL IL-2 and 30 U/mL IL-7 (Fitzgerald Industries), and incubated for another 6 days. These cultured T-cells were re-stimulated weekly using peptide-pulsed antigen presenting cells (either mDCs or the TK6 lymphoma cell line).
(§2) T-cell cultures that underwent at least two stimulations (or splenocyte cultures that had undergone one stimulation) were collected and incubated for four hours with target cells (either T2 cells pulsed for two hours with a specific or non-specific peptide, the LNCaP prostate cancer cell line, or media alone) at various effector-to-target ratios. After incubation, supernatants were collected and levels of lactate dehydrogenase were measured using the CytoTox 96 Non-Radioactive Assay (Promega). The relative percentage of peptide-specific lysis was quantitated using the following equation: […]
(§3) To characterize CD8+ T-cell responses to the AR LBD, the amino acid sequence of the AR LBD was evaluated for potential HLA-A2-binding epitopes that fit the consensus peptide binding sequence of X-L/M-X-X-X-V-X-X-V/L (SEQ ID NO:8), using the algorithm of Parker and colleagues (Parker K C et al., 1994, J. Immunol. 152:163-175). […] These peptides were synthesized and then characterized for their affinity for HLA-A2 in vitro using T2 binding assays. […] Peptide-specific T-cell lines were then cultured from the peripheral blood of 11 HLA-A2^+ patients with prostate cancer, using each of these peptides, and then tested for their cytolytic activity against both peptide-pulsed HLA-A2-expressing target cells and the HLA-A2^+ LNCaP prostate cancer cell line. Specifically, naive T cells were isolated by magnetic negative selection (Dynal) from the peripheral blood mononuclear cells (PBMCs) of HLA-A2-expressing prostate cancer patients, and cultured in the presence of autologous cytokine-matured irradiated dendritic cells (mDC) that had been loaded with individual peptides. These cultures received interleukin 2 (IL-2) and IL-7 the day after the culture, and were re-stimulated weekly with peptide-pulsed mDCs. Beginning after two weeks of stimulation, the T-cell cultures were tested weekly for their cytolytic activity using peptide-loaded T2 cells as target cells. Peptide-specific T-cells could be cultured from the majority of patients to at least one of these peptides, and peptide-specific T-cell lines could be cultured from the majority (7/11) of HLA-A2-expressing patients against the AR811 peptide in particular (Table 2).
(§4) Table 2. Compiled results of T cell culturing and cytotoxicity assays. Shown in this table are the results obtained from cytotoxicity assays of T cell cultures from eleven HLA-A2-expressing patients with prostate cancer. In the second column is the number of patients for which peptide-specific T cells could be identified following 2-4 in vitro stimulations.

[1] = tested on: HLA-A2+ LNCaP prostate cancer cell line; assay: Cytotoxicity assay (LDH) of peptide-specific patient T-cell cultures against LNCaP; assay type: cell-based, human; design: key to Prostate cancer cell lysis: +: positive lysis; −: no lysis; +/−: inconclusive; conditions: for Prostate cancer cell lysis: peptide-specific T cells against HLA-A2+ LNCaP; for Lysis of the LNCaP cell line by peptide-specific T-cells (FIG. 6): patient T-cell lines, three effector-to-target ratios
Experimental: as §1, §2, §3, §4

IFNγ and TNFα = assay: Intracellular cytokine staining of AR811-specific T-cell clone; assay type: cell-based, human; conditions: clone restimulated with peptide, gated on CD3+/CD8+ cells
Experimental: A clonal T-cell line specific for the AR811 peptide was derived by limited dilution following multiple restimulations in vitro. This line was restimulated for 5 hours in vitro with T2 cells and media only (panel A), an irrelevant peptide (panel B), AR811 peptide (panel C), or PMA/Ionomycin (panel D). IFNγ and TNFα cytokine accumulation were assessed by intracellular flow cytometric analysis (Cytofix/cytoperm kit, BD Pharmingen). Cells were first stained for CD3 and CD8 expression and CD3+/CD8+ cells were analyzed for IFNγ and TNFα expression. Shown are the plots gated on CD3+/CD8+ cells.
After T-cell cultures containing AR LBD peptide-specific T-cells were identified, peptide-specific T-cell clones were isolated using limited-dilution cloning. Briefly, cultured T-cells were diluted to 400 cells/mL, and were diluted at a 1:1 ratio down the rows of a 96-well plate. These T-cells were mixed with 2×10^5 autologous PBMCs, as well as an anti-CD3 antibody (Clone UCHT1, BD Biosciences, 120 ng/mL) and IL-2 (Fitzgerald Industries, 200 U/mL), and were incubated at 37° C./5% CO2 for 12-14 days. Cultures generated from a single cell were identified, and their peptide-specificity was analyzed using a mini-cytotoxicity assay (as above). […] After three additional days, expanded T-cell clones were analyzed for cytotoxicity against peptide-specific or non-specific T2-pulsed cells (as described above). […]

[2] = tested on: prostate cancer cell lines (LNCaP, MDA-Pca-2B, DU145); assay: Cytotoxicity of AR811 CD8+ T-cell clone against prostate cancer cell lines, with HLA-A2 blocking antibody; assay type: cell-based, human; conditions: HLA-A2-negative DU145
Experimental: In addition, lysis was evaluated following pre-treatment of LNCaP with an HLA-A2 blocking monoclonal antibody (starburst). Shown is a cytotoxicity assay of an AR811 CD8+ cell clone. Cells were restimulated for seven days using peptide-pulsed antigen presenting cells, followed on day seven by a rest period of three days before they were analyzed for their cytotoxic activity.
To conduct a mini-cytotoxicity assay of limited-dilution clones, 50 μl (¼) of the cultured clones were incubated for four hours with either T2 cells pulsed with the specific peptide, a non-specific peptide, or media alone. For the subsequent characterization of CTL clone cytotoxicity against prostate cancer cells, cryopreserved CTL clones were thawed, washed 3 times, and restimulated by incubating the clones with peptide-pulsed irradiated TK6 cells for 7 days. These clones were then resuspended in 10 U/mL IL-2, and allowed to incubate for three days at 37° C./5% CO2. They were then analyzed for cytotoxicity (as described above) against four prostate cancer cell lines: LNCaP, DU145, LAPC4, and MDAPCa-2b cell lines. To characterize HLA-A2-restriction of observed cytotoxicity, a HLA-A2 antibody was added to the reaction (Clone BB7.2, BD Biosciences, 1 μg/mL).

[3] = tested on: T2 cells pulsed with the AR811 peptide; assay: Immunization of HLA-A2/DR1 (HHD-II) mice with peptide, splenocyte CTL assay; assay type: in vivo; conditions: once 100 μg peptide in CFA, splenocytes after one week

Row | Sequence | Peptide-specific lysis (Number of patients) (peptide-loaded T2 cells) | Prostate cancer cell lysis [1] | Peptide-specific lysis of T2 cells by peptide-specific T-cells (FIG. 6) (peptide-loaded T2 cells) | Lysis of the LNCaP cell line by peptide-specific T-cells (FIG. 6) [1] | IFNγ and TNFα secretion of peptide-specific T-cell clone (FIG. 7) (IFNγ and TNFα) | Lysis of prostate cancer cells by AR811 T-cell clone, HLA-A2 restriction (FIG. 8) [2] | Peptide-specific CTL after immunization (FIG. 9) [3]
1 | RMLYFAPDLV [AR761] | 6/11 | +/− |  |  |  |  | 
2 | FSIIPVDGL [AR814] | 3/11 | − |  |  |  |  | 
3 | VLEAIEPGV [AR677] | 2/11 | − |  |  |  |  | 
4 | QLTKLLDSV [AR859] | 2/11 | +/− | showed peptide-specific lysis | did not lyse the LNCaP cell line |  |  | 
5 | WMGLMVFAM [AR742] | 2/11 | − |  |  |  |  | 
6 | ALLSSLNEL [AR700] | 1/11 | − |  |  |  |  | 
7 | FLCMKALLL [AR805] | 3/11 | +/− |  |  |  |  | 
8 | LLLFSIIPV [AR811] | 7/11 | + | lyse T2 cells in a peptide-specific fashion | could lyse the LNCaP cell line | secrete both IFNγ and TNFα in response to peptide stimulation; also recorded: secretes IFNγ and TNFα in response to peptide stimulation | lysed prostate cancer cells in an MHC class I-restricted fashion; also recorded: naturally processed HLA-A2-restricted T-cell epitope | AR811 peptide-specific CTL could be identified after immunization; also recorded: develop peptide-specific CTL
9 | LGERQLVHVV [AR708] | 1/11 | − |  |  |  |  | 
10 | KLLDSVQPI [AR862] | 5/11 | − |  |  |  |  | 
